{"source": "patent US20170318812A1", "about": "“Plant and Crop Growth Regulating/Biostimulant Formulations and Methods of Use” (Arysta Lifescience North America, LLC, priority 2014, published 2017)", "key": {"ZEAMX Zea mays (Corn)": {"system": "ZEAMX Zea mays (Corn)", "assay": "Ipfencarbazone biostimulant effect, early post emergence foliar application, greenhouse pots, plant height: corn", "format": "in vivo", "settings": "ZEAMX AG7098PRO2", "excerpt": "(§1) The original objective of this Example was to evaluate the herbicidal effect of ipfencarbazone when applied as a post emergent treatment to a range of selected crops and weeds. Unexpectedly, crop plant growth stimulation was observed. The actual species of weeds and crops are listed in the summary data tabulated below and in FIGS. 1-13. By convention each plant species has a Bayer code (5-letter name) with the scientific name for the plant referenced in FIGS. 1-13. In each Figure, each tray contains the same configuration of weeds and/or crops. In each Figure there is one replication of each treatment (six treatments in total). The top three photographs in each Figure show the Bayer Codes and bottom three photographs are aligned with the top three facilitating viewing of the same plant species. Throughout the Examples various abbreviations as conventional shorthand notation and will be appreciated by those skilled in the art. Some exemplary abbreviations include, “CV”=Co-efficient of Variation,” “LSD”=Least Significant Difference” (G/L (gram per L) AND GA/L (gram of active ingredient per L); “SC”=suspension concentrate formulation. The diluent in all treatments was water. By convention factors that are identical in all treatments (e.g. diluent and surfactant) are not listed in each treatment.\n(§2) Methods: The indicated size pots (see Tables below) are filled with a specific soil, the soil properties being indicated below. The referenced crops and weeds are planted by hand in each pot. […] The experiments include six treatments each replicated three times on each crop/weed species. At a specific time after emergence each crop and weed species was treated with ipfencarbazone plus a non-ionic surfactant (NIS). In the present Example, the surfactant employed was ENERGIC™ (non-ionic surfactant). The application timing is indicated in each of the Tables (1 or 2 leaf stage) below. Ipfencarbazone plus surfactant was diluted in water and applied at a rate equivalent to about 250 L/ha. Ipfencarbazone was applied using a track sprayer. After treatment, the pots were randomized in a greenhouse. At each assessment (indicated by “days after treatment” or DAT) the height of each plant was measured. The letters next to each mean indicate the level of statistical significance.\n(§3) Replications: 3, Untreated treatments: 1, Design: Randomized Complete Block (RCB), Treatment units: Treated ‘Plot’ experimental unit size, Dry Form. Unit: %, Treated ‘Plot’ experimental unit size Width: 1 meter, Treated ‘Plot’ experimental unit size Length: 1.4 meters, Application volume: 250 L/ha, Mix size: 0.15 liters, […]"}, "[1]": {"system": "GOSHI Gossypium hirsutum (American upland cotton)", "assay": "Ipfencarbazone biostimulant effect, early post emergence foliar application, greenhouse pots, plant height: cotton", "format": "in vivo", "settings": "for Plant HEIGHT, Mean / Plant HEIGHT, single plots: Cotton 975WS; for HEIGHT, percent of untreated check (APoC) / HEIGHT, treatment mean: GOSHI 975WS", "excerpt": "as §1, §2, §3"}, "[2]": {"settings": "15 DA-A, 62.5 g ai/ha + Energic NIS 0.2 % v/v"}, "[3]": {"settings": "15 DA-A, 125 g ai/ha + Energic NIS 0.2 % v/v"}, "[4]": {"settings": "15 DA-A, 250 g ai/ha + Energic NIS 0.2 % v/v"}, "[5]": {"settings": "15 DA-A, 500 g ai/ha + Energic NIS 0.2 % v/v"}, "[6]": {"settings": "28 DA-A, 62.5 g ai/ha + Energic NIS 0.2 % v/v"}, "[7]": {"settings": "28 DA-A, 125 g ai/ha + Energic NIS 0.2 % v/v"}}, "note": "Values joined by “and” are separate entries in the source; they are usually repeats but may differ in a detail not shown here. Equal entries are not always repeated."}
{"smiles": "CC(C)N(C(=O)n1cnn(-c2ccc(Cl)cc2Cl)c1=O)c1ccc(F)cc1F", "note": "[ARY-0572-001, ipfencarbazone]", "values": [{"measurement": "HEIGHT, percent of untreated check (APoC)", "setting": "ZEAMX Zea mays (Corn); 250 g ai/ha, 15 DA-A", "value": "(155.4%)"}, {"measurement": "HEIGHT, treatment mean", "setting": "ZEAMX Zea mays (Corn); 250 g ai/ha, 15 DA-A", "value": "59.4 a cm and 59.4 cm"}, {"measurement": "HEIGHT, single plots (replicates)", "setting": "ZEAMX Zea mays (Corn); 250 g ai/ha, 15 DA-A, plots 104, 201, 306", "value": "56.5 cm and 61.0 cm and 60.7 cm"}, {"measurement": "HEIGHT, percent of untreated check (APoC)", "setting": "ZEAMX Zea mays (Corn); 250 g ai/ha, 28 DA-A", "value": "(208.3%)"}, {"measurement": "HEIGHT, treatment mean", "setting": "ZEAMX Zea mays (Corn); 250 g ai/ha, 28 DA-A", "value": "106.0 a cm and 106.0 cm"}, {"measurement": "HEIGHT, single plots (replicates)", "setting": "ZEAMX Zea mays (Corn); 250 g ai/ha, 28 DA-A, plots 104, 201, 306", "value": "108.3 cm and 104.0 cm and 105.7 cm"}, {"measurement": "HEIGHT, percent of untreated check (APoC)", "setting": "ZEAMX Zea mays (Corn); 500 g ai/ha, 15 DA-A", "value": "(161.9%)"}, {"measurement": "HEIGHT, treatment mean", "setting": "ZEAMX Zea mays (Corn); 500 g ai/ha, 15 DA-A", "value": "61.9 a cm and 61.9 cm"}, {"measurement": "HEIGHT, single plots (replicates)", "setting": "ZEAMX Zea mays (Corn); 500 g ai/ha, 15 DA-A, plots 105, 202, 301", "value": "58.7 cm and 67.0 cm and 60.0 cm"}, {"measurement": "HEIGHT, percent of untreated check (APoC)", "setting": "ZEAMX Zea mays (Corn); 500 g ai/ha, 28 DA-A", "value": "(205.9%)"}, {"measurement": "HEIGHT, treatment mean", "setting": "ZEAMX Zea mays (Corn); 500 g ai/ha, 28 DA-A", "value": "104.8 a cm and 104.8 cm"}, {"measurement": "HEIGHT, single plots (replicates)", "setting": "ZEAMX Zea mays (Corn); 500 g ai/ha, 28 DA-A, plots 105, 202, 301", "value": "101.7 cm and 107.7 cm and 105.0 cm"}, {"measurement": "HEIGHT, percent of untreated check (APoC)", "setting": "ZEAMX Zea mays (Corn); 1000 g ai/ha, 15 DA-A", "value": "(98.3%)"}, {"measurement": "HEIGHT, treatment mean", "setting": "ZEAMX Zea mays (Corn); 1000 g ai/ha, 15 DA-A", "value": "37.6 b cm and 37.6 cm"}, {"measurement": "HEIGHT, single plots (replicates)", "setting": "ZEAMX Zea mays (Corn); 1000 g ai/ha, 15 DA-A, plots 106, 203, 304", "value": "48.7 cm and 34.7 cm and 29.3 cm"}, {"measurement": "HEIGHT, percent of untreated check (APoC)", "setting": "ZEAMX Zea mays (Corn); 1000 g ai/ha, 28 DA-A", "value": "(117.9%)"}, {"measurement": "HEIGHT, treatment mean", "setting": "ZEAMX Zea mays (Corn); 1000 g ai/ha, 28 DA-A", "value": "60.0 b cm and 60.0 cm"}, {"measurement": "HEIGHT, single plots (replicates)", "setting": "ZEAMX Zea mays (Corn); 1000 g ai/ha, 28 DA-A, plots 106, 203, 304", "value": "91.7 cm and 44.0 cm and 44.3 cm"}, {"measurement": "Plant HEIGHT, Mean", "setting": "[1]; [2]", "value": 16.1, "unit": "cm"}, {"measurement": "Plant HEIGHT, single plots", "setting": "[1]; [2]", "value": "19.2 cm and 13.7 cm and 15.3 cm"}, {"measurement": "Plant HEIGHT, Mean", "setting": "[1]; [3]", "value": 11.9, "unit": "cm"}, {"measurement": "Plant HEIGHT, single plots", "setting": "[1]; [3]", "value": "9.7 cm and 12.0 cm and 14.0 cm"}, {"measurement": "Plant HEIGHT, Mean", "setting": "[1]; [4]", "value": 9.5, "unit": "cm"}, {"measurement": "Plant HEIGHT, single plots", "setting": "[1]; [4]", "value": "9.3 cm and 9.2 cm and 10.0 cm"}, {"measurement": "Plant HEIGHT, Mean", "setting": "[1]; [5]", "value": 7.7, "unit": "cm"}, {"measurement": "Plant HEIGHT, single plots", "setting": "[1]; [5]", "value": "9.2 cm and 6.3 cm and 7.7 cm"}, {"measurement": "Plant HEIGHT, Mean", "setting": "[1]; 15 DA-A, 1000 g ai/ha + Energic NIS 0.2 % v/v", "value": 6.9, "unit": "cm"}, {"measurement": "Plant HEIGHT, Mean", "setting": "[1]; [6]", "value": 24.9, "unit": "cm"}, {"measurement": "Plant HEIGHT, single plots", "setting": "[1]; [6]", "value": "26.0 cm and 27.7 cm and 21.0 cm"}, {"measurement": "Plant HEIGHT, Mean", "setting": "[1]; [7]", "value": 17.7, "unit": "cm"}, {"measurement": "Plant HEIGHT, single plots", "setting": "[1]; [7]", "value": "19.0 cm and 17.3 cm and 16.7 cm"}, {"measurement": "Plant HEIGHT, Mean", "setting": "[1]; 28 DA-A, 250 g ai/ha + Energic NIS 0.2 % v/v", "value": 15.8, "unit": "cm"}, {"measurement": "Plant HEIGHT, Mean", "setting": "[1]; 28 DA-A, 500 g ai/ha + Energic NIS 0.2 % v/v", "value": 13.2, "unit": "cm"}, {"measurement": "Plant HEIGHT, Mean", "setting": "[1]; 28 DA-A, 1000 g ai/ha + Energic NIS 0.2 % v/v", "value": 8.9, "unit": "cm"}, {"measurement": "HEIGHT, percent of untreated check (APoC)", "setting": "[1]; 62.5 g ai/ha, 15 DA-A", "value": "(137.6%)"}, {"measurement": "HEIGHT, treatment mean", "setting": "[1]; 62.5 g ai/ha, 15 DA-A", "value": 16.1, "unit": "a cm"}, {"measurement": "HEIGHT, percent of untreated check (APoC)", "setting": "[1]; 62.5 g ai/ha, 28 DA-A", "value": "(154.5%)"}, {"measurement": "HEIGHT, treatment mean", "setting": "[1]; 62.5 g ai/ha, 28 DA-A", "value": 24.9, "unit": "a cm"}, {"measurement": "HEIGHT, percent of untreated check (APoC)", "setting": "[1]; 125 g ai/ha, 15 DA-A", "value": "(101.9%)"}, {"measurement": "HEIGHT, treatment mean", "setting": "[1]; 125 g ai/ha, 15 DA-A", "value": 11.9, "unit": "b cm"}, {"measurement": "HEIGHT, percent of untreated check (APoC)", "setting": "[1]; 125 g ai/ha, 28 DA-A", "value": "(109.7%)"}, {"measurement": "HEIGHT, treatment mean", "setting": "[1]; 125 g ai/ha, 28 DA-A", "value": 17.7, "unit": "ab cm"}, {"measurement": "HEIGHT, percent of untreated check (APoC)", "setting": "[1]; 250 g ai/ha, 15 DA-A", "value": "(81.4%)"}, {"measurement": "HEIGHT, treatment mean", "setting": "[1]; 250 g ai/ha, 15 DA-A", "value": 9.5, "unit": "bc cm"}, {"measurement": "HEIGHT, percent of untreated check (APoC)", "setting": "[1]; 250 g ai/ha, 28 DA-A", "value": "(97.9%)"}, {"measurement": "HEIGHT, treatment mean", "setting": "[1]; 250 g ai/ha, 28 DA-A", "value": 15.8, "unit": "bc cm"}, {"measurement": "HEIGHT, percent of untreated check (APoC)", "setting": "[1]; 500 g ai/ha, 15 DA-A", "value": "(66.2%)"}, {"measurement": "HEIGHT, treatment mean", "setting": "[1]; 500 g ai/ha, 15 DA-A", "value": 7.7, "unit": "c cm"}, {"measurement": "HEIGHT, percent of untreated check (APoC)", "setting": "[1]; 500 g ai/ha, 28 DA-A", "value": "(82.1%)"}, {"measurement": "HEIGHT, treatment mean", "setting": "[1]; 500 g ai/ha, 28 DA-A", "value": 13.2, "unit": "bc cm"}, {"measurement": "HEIGHT, percent of untreated check (APoC)", "setting": "[1]; 1000 g ai/ha, 15 DA-A", "value": "(59.5%)"}, {"measurement": "HEIGHT, treatment mean", "setting": "[1]; 1000 g ai/ha, 15 DA-A", "value": 6.9, "unit": "c cm"}, {"measurement": "HEIGHT, percent of untreated check (APoC)", "setting": "[1]; 1000 g ai/ha, 28 DA-A", "value": "(55.2%)"}, {"measurement": "HEIGHT, treatment mean", "setting": "[1]; 1000 g ai/ha, 28 DA-A", "value": 8.9, "unit": "c cm"}]}
